The source of these data is US20140107015A1, “PHARAMACEUTICAL COMPOSITION FOR PREVENTING OR TREATING HUMAN IMMUNODEFICIENCY VIRUS” (priority 2012, published 2014).

Read-outs that look alike come from different tables or passages of the source.

The target in data set [1] is HIV-1 reverse transcriptase (UniProt P04585). The note with it: for reverse transcriptase (RT) activity inhibition: 0.5 mg/ml, FIG. 23.
Data set [2] deals with 8E5 and MOLT-4 cell lines. The experiment in a line: Syncytia formation in co-culture of 8E5 and MOLT-4 cell lines. Format: cell-based. The note with it: 0.5 mg/ml; for number of syncytia formed with time: FIG. 36; for syncytia formation inhibiting effect compared with control group: positive control AZT-Saq.
Protocol: The number of syncytia formed with time was determined. Mock was an experimental group without the sample and AZT-Saq treated with AZT and saquinavir at the same time was used as a positive control.
Data set [3] deals with TZM-b1 cell infected with HIV-1IIIB. As to conditions: for HIV-1 replication (gene reporter): 0.05, 0.1, 0.5, and 1 mg/ml, 48 hours, FIG. 38; for HIV-1 replication inhibition relative to the other samples: among COS-D, COS-T, COS-Y, COS-TD, COS-TY.
Protocol: Briefly, one day before infection, 5×10^4 TZM-d1 cells were seeded in a 24-well flat, and added with 100 μl of HIV-1IIIB supernatant (100 CCID50 (1 μg/ml)) to infect 50% of the cells. […] After incubation, cells were washed with cold PBS and lysed in 300 μl of lysis buffer (Promega Corp., Madison, Wis.). 20 μl of cell lysate was mixed with 100 μl of luciferase substrate (Promega) and light emission was measured for 10 seconds in a luminometer (Tecan Austria GmbH, Austria). In case of β-galactosidase assay, 100 μl of X-gal substrate was mixed with cell lysate in order to stain the HIV-1 replicated cells and light absorption was measured at the optical density of 550 nm.
The subject of data set [4] is H9 cells infected with HIV-1IIIB. The experiment in a line: RT-PCR analysis of HIV-1 gene (Vif, Env, Gag) expression. It is filed as cell-based. As to conditions: for Vif, Env, and Gag genes expressions: 0.05, 0.1, 0.5, and 1 mg/ml, 4 days, FIG. 35; for Env gene expression: as treatment concentrations were increased.
Protocol: RNA in the total cells cultured was isolated by using Trizol reagent (Invitrogen Co., CA, USA). 2 μg of isolated RNA was reverse-transcripted into cDNA using an oligo-(dT) primer (Promega, Madison, Wis., USA). […] A PCR product was isolated by subjecting an electrophoresis on 1.5% agarose gel at 100 V for 10 minutes. The gel was stained with 1 mg/ml of EtBr, and then photographed under UV illumination by using AlphaEas® gel image analysis software (Alpha Innotech., San Leandro, Calif., USA).
The test system is the same in data set [5]. The experiment in a line: Western blot analysis of p24 protein amount in cells. It is filed as cell-based. As to conditions: 0.01 to 1 mg/ml; cultured for 4 days; FIG. 34.
Protocol: The total cultured cells were lysised in RIPA buffer solution (Sigma-Aldrich Corp., St. Louis, USA), centrifuged, and then the total protein amount of cell lysate was measured by using Lowry method (BioRad Laboratories, Hercules, Calif.). The aliquot supernatant including the same volume of protein (15 μg) was subjected to 10% or 12% SDS-PAGE gel, transferred on a nitrocellulose membrane (Amersham Pharmacia Biotech., England, UK), and blocked in Tris buffered saline containing 0.1% (v/v) Tween-20 (TBS-T) and 5% skim milk powder for at least 1 hour. The membrane was hybridized with mouse anti-p24 monoclonal antibody (Santa Cruz Biotechnology Inc., CA, USA). All the primary monoclonal antibodies were diluted with TBS-T at a ratio of 1:1000. The antibody was detected with Horseradish peroxidase (HRP)-conjugated anti-mouse IgG secondary antibody for 1 hour. The immune reactive protein was detected by using a chemical fluorescence ECL detecting kit (Amersham Pharmacia Biosciences, England, UK) according to the manufacturer's instruction. The western blot bands were visualized by LAS3000® chemiluminescence (Fujifilm Life Science, Tokyo, Japan).
The test system of data set [6] is C8166 cell lines infected with HIV-1IIIB. As to conditions: 0.5 mg/ml; for cell viability of HIV-1-infected C8166 cells: 48 hours after HIV-1IIIB infection, MTT, untreated cells = 100%; for cell protecting effect from HIV-1 lysis activity (cell deaths): FIG. 17 and 20.
Protocol: And then, the cytotoxicities were measured through MTT assay as time passed.
Since C8166 cell lines were sensitive about lysis effect of HIV-1 replication, the present test evaluated a degree of inhibiting HIV-1 replication based on the sensitivity of C8166 cells at lysis activity due to HIV-1 infection in the present experiment.
Since then, the supernatants of HIV-1IIIB were diluted in complete medium to yield sufficient cytopathicity, and a 100 μl aliquot was added to the wells. Plates were incubated for 24 h, 48 h and 72 h at 37° C. and after each respective incubation, 100 μl of 500 μg/ml MTT solution was added to each well and the plate was incubated for another 4 hours at 37° C. The formazan salt was dissolved in acidified propanol containing 50% DMSO and 4% triton X-100. […] The optical density of formazan formed by untreated cells was taken as 100% of viability.
The test system of data set [7] is C8166 cell lines infected with HIV-1RF. The experiment in a line: Syncytia formation in C8166 cells infected with HIV-1RF (microscopy, 48 hours). It is filed as cell-based. The note with it: 0.5 mg/ml; for number of syncytia formation per well versus untreated control: FIG. 22; for syncytia formation observed with a microscope: FIGS. 18, 19, 21.
Protocol: Since then, a degree of syncytia formation was observed by using a microscope.
When the virus infection stimulating cell fusion was analyzed, the syncytia formation was tested in order to investigate the virus infection.
Specifically, 1×10^5 C8166 cells in aliquots of 300 μl were seeded in triplicate to a 48-well plate containing 100 μl of serial dilutions of COS-amino acids (each of chitosan oligomer-amino acid conjugate) in complete RPMI-1640 medium with 5% FBS. After 2 hours of incubation, the cells were infected with 100 μl of stock supernatant of HIV-1RF diluted in complete medium at 200 CCID50 (μg/ml). The plates were incubated at 37° C. for 48 hours and the formation of syncytia was determined microscopically by using an inverted microscope (Leica Microsystems, Germany).
After 2 hours of incubation, the cells were infected with 100 μl of stock supernatant of HIV-1RF diluted in complete medium at 200 CCID50 (μg/ml). The plates were incubated at 37° C. for 48 hours and the formation of syncytia was determined microscopically by using an inverted microscope.
Data set [8] deals with CEM-SS cells infected with HIV-1IIIB and HIV-1Saq. As to conditions: 0.5 mg/ml; FIG. 37.
Protocol: Uninfected CEM-SS cells were cultured into individual wells of a 48-well microtiter plate at a density of 3×10^4 cells/well in 400 μl of medium. Diluted HIV-1IIIB and HIV-1Saq stock supernatants (100 μl) were added to appropriate wells to yield a final M.O.I of 1.0 (CCID50). […] After a total of 4 days incubation, in order to measure the amount of p24 production, HIV-1 p24 antigen capture ELISA was performed using the commercial kit (Perkin-Elmer Life Sciences, Boston, Mass.) according to the manufacturer's instruction.
The test system of data set [9] is uninfected C8166 cell lines co-cultured with H9 cells infected with HIV-1IIIB. The experiment in a line: Syncytia formation in co-culture of uninfected C8166 with H9 infected with HIV-1IIIB. The note with it: for syncytia formation in co-culture over concentrations: 0.2, 0.4, 0.6, 0.8, and 1 mg/ml, 96 hours, FIGS. 32, 33; for syncytia formation inhibition in co-culture compared with positive control group: positive control Dextran sulfate. Format: cell-based.
Protocol: After 96 hours, the formed syncytia was counted by using a microscope (100×). Dextran sulfate having the syncytia formation inhibiting effect was used as a positive control group.

Data set [10] concerns C8166 cells infected with HIV-1RF. The experiment in a line: Syncytia formation inhibition in C8166 infected with HIV-1RF, various concentrations, 96 hours. The note with it: for syncytia formation inhibition over concentrations: 0.2, 0.4, 0.6, 0.8, and 1.0 mg/ml, 96 hours, FIGS. 28, 29. It is filed as cell-based. The method, then: Specifically, 1×10^5C8166 cells in aliquots of 300 μl were seeded in triplicate to a 48-well plate containing 100 μl of serial dilutions of COS-N in complete RPMI-1640 medium with 5% FBS. After 2 hours of incubation, the cells were infected with 100 μl of stock supernatant of HIV-1RF diluted in complete medium at 200 CCID50 (μg/ml). The plates were incubated at 37° C. for 96 hours and the formation of syncytia was determined microscopically by using an inverted microscope (Leica Microsystems, Germany). Dextran sulfate having the syncytia formation inhibiting effect was used as a positive control group.
The syncytia formation effect was measured by using the same method as in Example <4-3>.

The target in data set [11] is T1, HIV-1 reverse transcriptase (Human immunodeficiency virus type 1 group M subtype B, UniProt P05959).
T1 construct: endogenous in cells; host or cells: C8166 and CEM-SS cells infected with HIV-1RF (lysates)
Format: biochemical. The note with it: for reverse transcriptase inhibiting activity over concentrations: 0.05, 0.1, 0.25, 0.5, and 1 mg/ml, FIGS. 26, 27.

For data set [12], the system named is HIV-1 protease. As to conditions: 0.5 mg/ml; HIV-1RF/HIV-1IIIB; FIG. 24.
Protocol: The amino acid sequence of FRET peptide is made by copying p17/p24 decomposition site by HIV-1 protease on a precursor Gag protein. FRET peptide is decomposed by HIV-1 protease and fluoresces.
Since then, 20 μl of substrate was added to HIV-1 protease that is pre-cultured at the same temperature for the same period and then slowly well-mixed for 30 to 60 second, completely. Since then, the fluorescence was measured at Ex/Em=340 nm/490 nm. The inhibiting rate was estimated as a relatively value to 100 of the fluorescence of the sample without an inhibitor.
Data set [13] has as its system HIV-1 protease of HIV-1saq. The experiment in a line: SensoLyte 520 HIV-1 protease FRET assay in saquinavir resistant HIV-1saq. Format: biochemical. The note with it: saquinavir resistant strain; FIG. 25.
Description: Meanwhile, the present inventors examined HIV-1 protease inhibiting effect using other cell lines of HIV-1. They use HIV-1saq that is a cell line having a resistance to saquinavir.
Saquinavir was used as a positive control group.
The test system of data set [14] is H9 cells infected with HIV-1IIIB. The experiment in a line: HIV-1 p24 antigen capture ELISA of culture supernatant. Format: cell-based. As to conditions: various concentrations; FIG. 31. The method, then: In order to measure p24 amount secreted from virus, H9 cells (3×10^6 cells/ml) was cultured at 37° C. for 1 hour in the presence of HIV-1IIIB. The unbound virus was removed from the cells by washing, and re-suspended in the culture medium to be 3×10^5 cells/ml. 1 mL of aliquot was injected to 24-well plate including the medium having the same volume containing COS-E sample. In order to measure the amount of virus secreted in the medium, HIV-1 p24 antigen capture ELISA was performed according to the manufacturer's instruction using a commercial kit (Perkin-Elmer Life Sciences, Boston, Mass.).
(In general: In an ELISA, binding on a coated surface is turned into a signal by an enzyme label.)

In data set [15] the target is T2, HIV-1 protease (Human immunodeficiency virus type 1 group M subtype B, UniProt P05959).
T2 construct: endogenous in cells; host or cells: C8166 and CEM-SS cells infected with HIV-1RF
The experiment in a line: Protease assay with protease diluents of C8166 and CEM-SS infected with HIV-1RF, various concentrations. It is filed as biochemical. As to conditions: 0.05, 0.1, 0.25, 0.5, and 1 mg/ml; FIG. 30. The method, then: First, the HIV-1 protease inhibiting activity was measured by using the same method as in Example <3-3> except that the protease diluents of two cell lines, C8166 and CEM-SS infected with HIV-1RF.

The mark [16] stands for this setting: sample 0.5 mg/ml, mean of HIV-1RF and HIV-1IIIB.

As a reminder, the IC50 is the concentration at which inhibition is half-maximal. Take `Cc1cn([C@H]2C[C@H](N=[N+]=[N-])[C@@H](CO)O2)c(=O)[nH]c1=O` [AZT, zidovudine, reference compound]: the “RT Inhibition (%)” value in [1] (positive control 2 μM, mean of HIV-1RF and HIV-1IIIB) was 82.6%. Further, the IC50 in data set [1] (read-out: IC50 (RT inhibition), mean of HIV-1RF and HIV-1IIIB) was 303 µM.

“Chitosan oligomer-(Threonine-Aspartic acid) [COS-TD]”: in data set [2], the “number of syncytia formed with time” value is listed as “not increased” and the “syncytia formation inhibiting effect compared with control group” value is “high syncytia formation inhibiting effect”. In data set [3], the “HIV-1 replication (gene reporter)” value is “inhibited the HIV-1 replication depending on the concentration” and the “HIV-1 replication inhibition relative to the other samples” value is reported as “more effective”. In [4], the “Vif, Env, and Gag genes expressions” value was “reduced depending on the treatment concentrations”; the Env gene expression entry is recorded as “significantly inhibited”. Also, the “p24 antigen production (western blot)” value in data set [5] is recorded as “inhibited depending on the treatment concentrations”. Also, in data set [6], the “cell viability of HIV-1-infected C8166 cells” value (from here on “cell viability”) was 94.6% and the “cell protecting effect from HIV-1 lysis activity (cell deaths)” value is “high cell protecting effect”. In addition, the “reverse transcriptase (RT) activity inhibition” value in [1] was “effectively inhibited”. In addition, the “IC50 (RT inhibition)” value in data set [1] (mean of HIV-1RF and HIV-1IIIB) is 207 µg/mL. Also, in data set [1] (setting [16]), the “RT Inhibition (%)” value was 85.1%. Besides, in [7], the “number of syncytia formation per well versus untreated control” value (“number … per well versus untreated control” below) is given as “more significantly inhibited” and the “syncytia formation observed with a microscope” value (from here on “syncytia formation observed”) is on record as “rarely formed”. The “p24 production inhibiting activity with later addition” value in data set [8] is on record as “reduced as time passes”. Moreover, in data set [9], the “syncytia formation in co-culture over concentrations” value is given as “inhibited depending on the treated concentration” and the “syncytia formation inhibition in co-culture compared with positive control group” value was “more effective”.

As to “Chitosan oligomer-(Threonine-Tyrosine) [COS-TY]”, in data set [2], the “number of syncytia formed with time” value was “not increased” and the “syncytia formation inhibiting effect compared with control group” value is “high syncytia formation inhibiting effect”. Further, in data set [3], the “HIV-1 replication (gene reporter)” value was “inhibited the HIV-1 replication depending on the concentration” and the “HIV-1 replication inhibition relative to the other samples” value was “more effective”. Further, in data set [4], the “Vif, Env, and Gag genes expressions” value is given as “reduced depending on the treatment concentrations”; the Env gene expression entry was “significantly inhibited”. Moreover, the “p24 antigen production (western blot)” value in [5] is given as “inhibited depending on the treatment concentrations”. Besides, in data set [6], the “cell protecting effect from HIV-1 lysis activity (cell deaths)” value is recorded as “high cell protecting effect”. In [1], the “reverse transcriptase (RT) activity inhibition” value is on record as “effectively inhibited”. In addition, the “RT Inhibition (%)” value in data set [1] (setting [16]) was determined as 85.8%. For the same compound, in [7], the “number … per well versus untreated control” value is reported as “more significantly inhibited” and the “syncytia formation observed” value is listed as “rarely formed”. For the same compound, the “p24 production inhibiting activity with later addition” value in data set [8] is recorded as “reduced as time passes”. In addition, in data set [9], the “syncytia formation in co-culture over concentrations” value is “inhibited depending on the treated concentration” and the “syncytia formation inhibition in co-culture compared with positive control group” value is listed as “more effective”.

On to Chitosan oligomer-Asparagine [COS-N], for which, in data set [6], the “cell viability” value is listed as 71.2%. Also, the “IC50 (RT inhibition)” value in data set [1] (mean of HIV-1RF and HIV-1IIIB) is 954 µg/mL. The “RT Inhibition (%)” value in [1] (setting [16]) is on record as 41.8%. Besides, in data set [7], the “number … per well versus untreated control” value is “significantly inhibited” and the “syncytia formation observed” value is “inhibited”. Also, in data set [10], the “syncytia formation inhibition over concentrations” value was “depending on the concentration”. For the same compound, the “syncytia formation inhibition compared with positive control group” value in data set [10] (positive control Dextran sulfate) was “more effective”.

Take Chitosan oligomer-Aspartic acid [COS-D]: in data set [3], the “HIV-1 replication (gene reporter)” value is reported as “inhibited the HIV-1 replication depending on the concentration”. Besides, the “cell viability” value in data set [6] worked out at 78.8%. The “reverse transcriptase (RT) activity inhibition” value in [1] is reported as “effectively inhibited”. The “RT Inhibition (%)” value in data set [1] (setting [16]) is reported as 83.4%. In data set [7], the “number … per well versus untreated control” value is “significantly inhibited” and the “syncytia formation observed” value is reported as “inhibited”. In addition, the “reverse transcriptase inhibiting effect at 0.05 mg/ml” value in [11] (0.05 mg/ml) is listed as “no the reverse transcriptase inhibiting effect”. Moreover, the “reverse transcriptase activity at low concentrations” value in data set [11] (0.05 mg/ml and 0.1 mg/ml) is “not inhibited”. Besides, the “reverse transcriptase inhibiting activity over concentrations” value in [11] is “depending on the concentration”.

With Chitosan oligomer-Glutamic acid [COS-E], the HIV-1 protease inhibition entry in the data set on HIV-1 protease [12] is on record as “effectively inhibited”. For the same compound, the “IC50 (RT inhibition)” value in data set [1] (mean of HIV-1RF and HIV-1IIIB) is 1036 µg/mL. The “RT Inhibition (%)” value in data set [1] (setting [16]) stood at 32.7%. The “HIV-1 protease inhibition in HIV-1saq” value in data set [13] is “effectively inhibited”. In addition, in [7], the “number … per well versus untreated control” value is reported as “significantly inhibited” and the “syncytia formation observed” value is listed as “inhibited”. The “p24 secretion amount (production amount) in culture supernatant” value in data set [14] was “effectively inhibited”. In addition, the “HIV-1 protease inhibition over concentrations” value at HIV-1 protease [15] is “depending on the concentration”.

As for Chitosan oligomer-Threonine [COS-T], in data set [3], the “HIV-1 replication (gene reporter)” value is listed as “inhibited the HIV-1 replication depending on the concentration”. In [6], the “cell viability” value is listed as 72.3%. Besides, in [1] (mean of HIV-1RF and HIV-1IIIB), the “IC50 (RT inhibition)” value stood at 761 µg/mL. The “RT Inhibition (%)” value in data set [1] (setting [16]) is 55.3%. Also, in data set [7], the “number … per well versus untreated control” value is listed as “significantly inhibited” and the “syncytia formation observed” value is reported as “inhibited”. Further, the “syncytia formation inhibiting activity at 0.5 mg/ml or more” value in [10] (0.5 mg/ml or more, as compared with COS-N) is recorded as “very sharply increased”. Also, in [10], the “syncytia formation inhibition over concentrations” value is given as “depending on the concentration”.

In the case of Chitosan oligomer-Tyrosine [COS-Y], the “HIV-1 replication (gene reporter)” value in data set [3] is “inhibited the HIV-1 replication depending on the concentration”. In data set [1], the “reverse transcriptase (RT) activity inhibition” value is listed as “effectively inhibited”. In addition, the “RT Inhibition (%)” value in [1] (setting [16]) was 83.5%. Besides, in data set [7], the “number … per well versus untreated control” value is “significantly inhibited” and the “syncytia formation observed” value was “inhibited”. Also, in data set [11], the “reverse transcriptase inhibiting activity over concentrations” value was “depending on the concentration”.
